Measured values reported in publication PMC8838847, “Design, Synthesis and Cytotoxicity of Thiazole-Based Stilbene Analogs as Novel DNA Topoisomerase IB Inhibitors” (Molecules, 2022).

What was measured:
[1] = system: human colon cancer (HCT116) cells; test: MTT cytotoxicity assay, HCT116; type: cell-based; conditions: five doses 0.01-100 µM
Description: (§1) The cytotoxicity of the desired compounds was assessed through MTT assay against two human cancer cell lines, human breast cancer (MCF-7) and colon cancer (HCT116), and one normal cell line, human embryonic kidney 293T (HEK293T). CPT and etoposide (VP-16) were used as positive controls. The compounds were incubated with cells for 72 h in a five-dose assay ranging from 0.01 to 100 µΜ. After the drug treatments, MTT solution was added to test the percentage growth of tumor cells.
(§2) The cells were cultured on RPMI 1640 Medium at 37 °C in a humidified atmosphere with 5% CO2. The cytotoxicities of the target compounds were evaluated through MTT assay against two human cancer cell lines (human breast cancer MCF-7 and human colon cancer HCT116). For the compound treatment experiments, the cancer cells were treated with the compounds (pre-dissolved in DMSO) via a five-dose assay ranging from 10^−8 to 10^−4 M. After incubation for 72 h at 37 °C, MTT solution (20 μL, 2.5 mg/mL) in PBS (PBS without MTT as the blank) was added to each well of the culture plate. After incubation for 4 h, the formazan crystal formed in the well was dissolved in 100 μL of DMSO for an optical density of 570 nm. The IC50 value was calculated using nonlinear regression analysis (GraphPad Prism). Every experiment was conducted three times, independently.

[2] = system: human breast cancer (MCF-7) cells; test: MTT cytotoxicity assay, MCF-7; type: cell-based; conditions: five doses 0.01-100 µM
Description: as §1, §2

calf thymus Top1 = molecular target: T1, calf thymus Top1 (Bos taurus, UniProt F1MN93); test: Top1-mediated DNA relaxation assay; type: biochemical; conditions: compounds at 50 µM; semi-quantitative, relative to CPT at 50 µM
T1 construct: 1 unit of calf thymus Top1; from tissue; host or cells: calf thymus
T1 sequence (F1MN93 1-767): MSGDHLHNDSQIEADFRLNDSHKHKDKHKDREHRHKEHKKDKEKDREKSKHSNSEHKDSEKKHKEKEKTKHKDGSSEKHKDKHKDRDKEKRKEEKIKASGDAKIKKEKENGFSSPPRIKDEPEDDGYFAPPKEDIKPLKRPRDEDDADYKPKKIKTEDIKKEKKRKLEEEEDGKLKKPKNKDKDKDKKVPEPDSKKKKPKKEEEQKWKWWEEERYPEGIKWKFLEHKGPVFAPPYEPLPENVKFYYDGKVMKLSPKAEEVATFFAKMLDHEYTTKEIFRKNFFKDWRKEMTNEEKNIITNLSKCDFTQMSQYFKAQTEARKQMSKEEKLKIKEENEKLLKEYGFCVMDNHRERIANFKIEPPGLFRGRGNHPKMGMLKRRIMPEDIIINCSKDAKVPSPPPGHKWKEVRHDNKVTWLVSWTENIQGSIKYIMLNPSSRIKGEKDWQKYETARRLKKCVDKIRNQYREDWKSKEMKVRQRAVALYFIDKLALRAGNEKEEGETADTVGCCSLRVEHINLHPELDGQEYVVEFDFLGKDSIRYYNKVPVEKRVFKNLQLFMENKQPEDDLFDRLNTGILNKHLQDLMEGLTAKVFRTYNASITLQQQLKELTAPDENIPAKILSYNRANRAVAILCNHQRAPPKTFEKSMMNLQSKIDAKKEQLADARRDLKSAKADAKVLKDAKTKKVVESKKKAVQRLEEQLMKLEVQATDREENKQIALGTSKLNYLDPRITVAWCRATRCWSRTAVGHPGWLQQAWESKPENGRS
Description: The synthesized compounds 6–37 were evaluated for Top1 inhibitory activity by measurement of the Top1-mediated DNA relaxation assay. The compounds were tested at 50 µΜ using CPT as positive control, and the results were semi-quantitatively expressed relative to CPT at 50 µΜ as follows: ++++, more than 80% activity; +++, between 40% and 79% activity; ++, between 10% and 39% activity; +, less than 10% activity. […] In phenyl A, the 4-position halogen (X) remarkably affected the inhibition against Top1. […] In phenyl B, the introduction of substituents at the 3-position was beneficial for the Top1 inhibition, and the derivatives presented good tolerance of the 3-substituents, since compounds 8 (++++) and 13 (+++) with electron-donating -Me or -OMe and also compound 19 (+++) with electron-withdrawing -Br had good inhibition against Top1. For substituents at the 4-position, the strong electron-withdrawing -CF3 (10, +++) and -F (15, +++) increased the Top1 inhibitory activity compared to compound 6 (R = H), while the weak electron-withdrawing -Cl (17, +) and the electron-donating -Me (9, +) and -OMe (14, +) decreased the activity, with the exception of tert-Bu (11, +++).
As previously mentioned, compound 8 had the best inhibition activity against Top1, and therefore was selected for further investigation. A semi-quantitative Top1-mediated relaxation assay of compound 8 was performed at concentrations of 0.2, 1, 5, 25 and 125 μM.
The compounds were tested for their Top1 inhibitory activity using a Top1-mediated relaxation assay. Briefly, the reaction mixture (20 μL) with 0.5 μg of supercoiled pBR322 DNA in relaxation buffer (10 mM Tris-HCl, pH 7.5, 50 mM KCl, 5 mM MgCl2, 15 μg/mL BSA, 40 μg/mL DTT) was incubated with 1 unit of calf thymus Top1 in the absence or in the presence of the compound for 30 min at 37 °C. Then, the reaction solution was added with 6 × loading buffer (4 μL) and was analyzed using a 0.8% agarose gel in TBE buffer at 4.6 V/cm for 1.5 h. Gel was stained with 1 × GelRed for 30 min and subsequently visualized with a UV transilluminator.

Cc1ccccc1/C=C/c1nc(-c2ccc(F)cc2)cs1 [Compound 7, (E)-2-(2-methylstyryl)-4-(4-fluorophenyl)thiazole]
melting point: 74 to 75 °C
IC50 ([1]; Homo sapiens, HCT-116, 72 h): 6.47 ± 0.62 µM
IC50 ([2]; Homo sapiens, MCF7, 72 h): 31.4 ± 4.21 µM

Fc1ccc(/C=C/c2nc(-c3ccc(F)cc3)cs2)cc1 [Compound 15, (E)-2-(4-fluorostyryl)-4-(4-fluorophenyl)thiazole]
melting point: 147 to 149 °C
IC50 ([1]; Homo sapiens, HCT-116, 72 h): 10.2 ± 1.07 µM

Oc1ccccc1/C=C/c1nc(-c2ccc(Br)cc2)cs1 [Compound 33, (E)-2-(2-(4-(4-bromophenyl)thiazol-2-yl)vinyl)phenol]
melting point: 226 to 228 °C
Relaxation Assay (Top1 inhibitory activity) (calf thymus Top1): + (less than 10% activity)
IC50 ([1]; 72 h): 4.15 ± 0.76 µM
IC50 ([1]; Homo sapiens, HCT-116, 72 h): < 5 µM
IC50 ([2]; Homo sapiens, MCF7, 72 h): 39.2 ± 1.79 µM

COc1cc([C@@H]2c3cc4c(cc3[C@@H](O[C@@H]3O[C@@H]5CO[C@@H](C)O[C@H]5[C@H](O)[C@H]3O)[C@H]3COC(=O)[C@H]23)OCO4)cc(OC)c1O [vp-16, etoposide, reference compound]
IC50 ([1]; Homo sapiens, HCT-116, 72 h): 18.9 ± 1.35 µM
IC50 ([2]; Homo sapiens, MCF7, 72 h): 24.7 ± 3.12 µM

FC(F)(F)c1ccc(/C=C/c2nc(-c3ccc(Br)cc3)cs2)cc1 [Compound 27, (E)-4-(4-bromophenyl)-2-(4-(trifluoromethyl)styryl)thiazole]
melting point: 102 to 103 °C
IC50 ([1]; Homo sapiens, HCT-116, 72 h): 34.9 ± 5.66 µM
IC50 ([2]; Homo sapiens, MCF7, 72 h): 24.3 ± 5.62 µM

CC(C)=CCOc1cccc(/C=C/c2nc(-c3ccc(Br)cc3)cs2)c1 [Compound 36, (E)-4-(4-bromophenyl)-2-(3-((3-methylbut-2-en-1-yl)oxy)styryl)thiazole]
melting point: 122 to 123 °C
IC50 ([1]; Homo sapiens, HCT-116, 72 h): > 100 µM
IC50 ([2]; Homo sapiens, MCF7, 72 h): > 100 µM

Clc1ccc(-c2csc(/C=C/c3ccccc3Cl)n2)cc1 [Compound 25, (E)-4-(4-chlorophenyl)-2-(2-chlorostyryl)thiazole]
melting point: 109 to 110 °C
Relaxation Assay (Top1 inhibitory activity) (calf thymus Top1): + (less than 10% activity)
IC50 ([1]; Homo sapiens, HCT-116, 72 h): 51 ± 3.7 µM
IC50 ([2]; Homo sapiens, MCF7, 72 h): 48.5 ± 6.67 µM

Cc1ccccc1/C=C/c1nc(-c2ccc(Cl)cc2)cs1 [Compound 21, (E)-4-(4-chlorophenyl)-2-(2-methylstyryl)thiazole]
melting point: 83 to 84 °C
Relaxation Assay (Top1 inhibitory activity) (calf thymus Top1): + (less than 10% activity)
IC50 ([1]; Homo sapiens, HCT-116, 72 h): 41.7 ± 1.92 µM
IC50 ([2]; Homo sapiens, MCF7, 72 h): 39.5 ± 1.06 µM

CC(C)=CCOc1ccc(/C=C/c2nc(-c3ccc(Br)cc3)cs2)cc1 [Compound 37, (E)-4-(4-bromophenyl)-2-(4-((3-methylbut-2-en-1-yl)oxy)styryl)thiazole]
melting point: 134 to 135 °C
Relaxation Assay (Top1 inhibitory activity) (calf thymus Top1): + (less than 10% activity)
IC50 ([1]; Homo sapiens, HCT-116, 72 h): > 100 µM
IC50 ([2]; Homo sapiens, MCF7, 72 h): > 100 µM

COc1ccccc1/C=C/c1nc(-c2ccc(Cl)cc2)cs1 [Compound 24, (E)-4-(4-chlorophenyl)-2-(2-methoxystyryl)thiazole]
melting point: 93 to 95 °C
IC50 ([1]; Homo sapiens, HCT-116, 72 h): 49.4 ± 3.49 µM
IC50 ([2]; Homo sapiens, MCF7, 72 h): > 100 µM

Fc1ccc(/C=C/c2nc(-c3ccc(Br)cc3)cs2)cc1 [Compound 29, (E)-4-(4-bromophenyl)-2-(4-fluorostyryl)thiazole]
melting point: 176 to 178 °C
IC50 ([1]; Homo sapiens, HCT-116, 72 h): 63.2 ± 6.17 µM
IC50 ([2]; Homo sapiens, MCF7, 72 h): > 100 µM

Fc1ccc(-c2csc(/C=C/c3cccc(Br)c3)n2)cc1 [Compound 19, (E)-2-(3-bromostyryl)-4-(4-fluorophenyl)thiazole]
melting point: 142 to 144 °C
IC50 ([1]; Homo sapiens, HCT-116, 72 h): 6.95 ± 0.33 µM
IC50 ([2]; Homo sapiens, MCF7, 72 h): 11.5 ± 1.74 µM

Oc1ccc(/C=C/c2nc(-c3ccc(Br)cc3)cs2)cc1 [Compound 35, (E)-4-(2-(4-(4-bromophenyl)thiazol-2-yl)vinyl)phenol]
melting point: 204 to 205 °C
Relaxation Assay (Top1 inhibitory activity) (calf thymus Top1): + (less than 10% activity)
IC50 ([1]; 72 h): 2.86 ± 0.46 µM
IC50 ([1]; Homo sapiens, HCT-116, 72 h): < 5 µM
IC50 ([2]; Homo sapiens, MCF7, 72 h): 38 ± 5.82 µM

Fc1ccc(-c2csc(/C=C/c3ccc(C(F)(F)F)cc3)n2)cc1 [Compound 10, (E)-2-(4-(trifluoromethyl)styryl)-4-(4-fluorophenyl)thiazole]
melting point: 111 to 113 °C
IC50 ([1]; Homo sapiens, HCT-116, 72 h): 22.6 ± 2.41 µM
IC50 ([2]; Homo sapiens, MCF7, 72 h): 17.3 ± 1.62 µM

Fc1ccc(-c2csc(/C=C/c3ccccc3Br)n2)cc1 [Compound 18, (E)-2-(2-bromostyryl)-4-(4-fluorophenyl)thiazole]
melting point: 94 to 95 °C
IC50 ([1]; Homo sapiens, HCT-116, 72 h): 12.3 ± 1.1 µM
IC50 ([2]; Homo sapiens, MCF7, 72 h): 20 ± 2.07 µM

Oc1cccc(/C=C/c2nc(-c3ccc(Br)cc3)cs2)c1 [Compound 34, (E)-3-(2-(4-(4-bromophenyl)thiazol-2-yl)vinyl)phenol]
Relaxation Assay (Top1 inhibitory activity) (calf thymus Top1): + (less than 10% activity)
IC50 ([1]; Homo sapiens, HCT-116, 72 h): 9.99 ± 0.19 µM
IC50 ([2]; Homo sapiens, MCF7, 72 h): 22.8 ± 1.4 µM

COc1cccc(/C=C/c2nc(-c3ccc(F)cc3)cs2)c1 [Compound 13, (E)-2-(3-methoxystyryl)-4-(4-fluorophenyl)thiazole]
melting point: 115 to 116 °C
IC50 ([1]; 72 h): 4.99 ± 0.8 µM
IC50 ([1]; Homo sapiens, HCT-116, 72 h): < 5 µM
IC50 ([2]; 72 h): 9.85 ± 0.47 µM
IC50 ([2]; Homo sapiens, MCF7, 72 h): < 10 µM

Fc1ccc(-c2csc(/C=C/c3ccccc3)n2)cc1 [Compound 6, (E)-4-(4-fluorophenyl)-2-styrylthiazole]
melting point: 129 to 130 °C
IC50 ([1]; Homo sapiens, HCT-116, 72 h): 5.78 ± 1.89 µM
IC50 ([2]; Homo sapiens, MCF7, 72 h): 22.2 ± 5.01 µM

Cc1cccc(/C=C/c2nc(-c3ccc(Br)cc3)cs2)c1 [Compound 26, (E)-4-(4-bromophenyl)-2-(3-methylstyryl)thiazole]
melting point: 174 to 176 °C
IC50 ([2]; Homo sapiens, MCF7, 72 h): 10.8 ± 2.42 µM

COc1ccccc1/C=C/c1nc(-c2ccc(F)cc2)cs1 [Compound 12, (E)-2-(2-methoxystyryl)-4-(4-fluorophenyl)thiazole]
melting point: 73 to 74 °C
IC50 ([1]; Homo sapiens, HCT-116, 72 h): 17.8 ± 1.16 µM
IC50 ([2]; Homo sapiens, MCF7, 72 h): 49.5 ± 9.08 µM

Cc1cccc(/C=C/c2nc(-c3ccc(Cl)cc3)cs2)c1 [Compound 22, (E)-4-(4-chlorophenyl)-2-(3-methylstyryl)thiazole]
melting point: 133 to 134 °C
IC50 ([1]; Homo sapiens, HCT-116, 72 h): > 100 µM
IC50 ([2]; Homo sapiens, MCF7, 72 h): > 100 µM

Fc1ccc(-c2csc(/C=C/c3ccccc3Cl)n2)cc1 [Compound 16, (E)-2-(2-chlorostyryl)-4-(4-fluorophenyl)thiazole]
melting point: 97 to 98 °C
IC50 ([1]; Homo sapiens, HCT-116, 72 h): 8.42 ± 1.1 µM
IC50 ([2]; Homo sapiens, MCF7, 72 h): 15.2 ± 1.18 µM

CC(C)(C)c1ccc(/C=C/c2nc(-c3ccc(Br)cc3)cs2)cc1 [Compound 28, (E)-4-(4-bromophenyl)-2-(4-(tert-butyl)styryl)thiazole]
melting point: 89 to 90 °C
Relaxation Assay (Top1 inhibitory activity) (calf thymus Top1): + (less than 10% activity)
